Test [1] has as its system undifferentiated L6 cells. Put plainly: Penetration kinetics in live undifferentiated L6 cells, confocal microscopy. The format is cell-based, rat. Here is the method:
The L6 rat myogenic cell line (clone C5, EACC) is cultured in DMEM medium supplemented with 15% fetal bovine serum (LIFE TECHNOLOGIES) and 1% penicillin-streptomycin (Invitrogen).
The live cells were incubated with maurocalcine and the derived peptides, biotinylated and complexed with streptavidin-cyanin 3, at the final concentration of 100 nM in PBS, at ambient temperature in freshly changed culture medium, on the platform of an upright microscope (Nikon Eclipse 600 FN, equipped with a water-immersion objective (×40); aperture 0.8) and a confocal head (Nikon PCM 2000), or else with a Leica TCS-SP2 microscope, equipped with an objective (×100), according to the “XYZt” mode.
The penetration kinetics of the maurocalcine and of the derived peptides, biotinylated in complex with streptavidin-Cy3, was initiated by injecting 100 nM of the complex into the culture medium. The Cy3 fluorescence was excited by means of a 543 nm wavelength of an […] laser. The light emission was filtered (595±35 nm filter). The images were recorded and analyzed using the EZ2000 software (Nikon). The quantitative analysis of the relative fluorescence was carried out on the overall signal of all the cells, using appropriate software (Leica).

In test [2] the target is T1, RyR1 receptor (Oryctolagus cuniculus, UniProt P11716).
T1 construct: from tissue; host or cells: heavy sarcoplasmic reticulum vesicles (skeletal muscle implied)
Put plainly: Ca2+ release by heavy sarcoplasmic reticulum vesicles (antipyrylazo III). The following applies: 100 nM complex. The format is biochemical. Here is the method: (§1) The heavy sarcoplasmic reticulum vesicles are prepared according to the method of Kim et al. (J. Biol. Chem., 1983, 258, 9662-9668) modified as described in Marty et al. (J. Biol. Chem., 2000, 275, 8206-8212). The protein concentration is measured by the Biuret method.
The Ca^2+ release by the heavy sarcoplasmic reticulum vesicles was measured using a Ca^2+-sensitive dye, antipyrylazo III. The absorbance was measured at 710 nm, using a diode-array spectrophotometer (MOS-200, Optical System, BIOLOGIC). The heavy sarcoplasmic reticulum vesicles (50 μg) were actively loaded with Ca^2+, at 37° C., in 2 ml of buffer containing 100 mM KCl, 7.5 mM sodium pyrophosphate, 20 mM MOPS, pH 7.0, to which 250 μM of antipyrylazo III, 1 mM ATP/MgCl2, 5 mM phosphocreatine and 12 μg/ml of creatine phosphokinase had been added (Palade, J. Biol. Chem., 1987, 262, 6142-6148).
The calcium loading begins with sequential additions of 50 μM and 20 μM CaCl2.
Under these loading conditions, no calcium-induced calcium release interferes with the observations. At the end of each experiment, the Ca^2+ remaining in the vesicles is measured by the addition of 4 μM of Ca^2+ ionophore, […] (Sigma), and the absorbance signal is calibrated by means of two consecutive additions of 20 μM CaCl2.

In test [3] the target is T1, RyR1 receptor. Put plainly: Tritiated ryanodine binding assay on heavy sarcoplasmic reticulum vesicles. The following applies: 100 nM complex. The method, then:
as §1
The heavy sarcoplasmic reticulum vesicles (1 mg/ml) are incubated at 37° C. for 2 hours and 30 min, in reaction buffer comprising 5 nM [^3H]-ryanodine, 150 mM NaCl, 2 mM EGTA, 2 mM Ca^2+ (pCa=5) and 20 mM Hepes, pH 7.4. Maurocalcine, the maurocalcine-derived peptides and their biotinylated derivatives are added before the addition of the heavy sarcoplasmic reticulum vesicles. The [^3H]-ryanodine bound to the heavy sarcoplasmic vesicles is measured by filtration through Whatmann GF/B filters, followed by three washes with 5 ml of ice-cold washing buffer (150 mM NaCl, 20 mM Hepes, pH 7.4). The [^3H]-ryanodine retained on the filters is measured by liquid scintillation. The nonspecific binding is measured in the presence of […] ryanodine (20 μM). The results are given in the form of means±standard deviation. Each experiment is carried out in triplicate and repeated at least twice.

The test system of test [4] is HEK293 cells. Put plainly: Cell penetration and subcellular distribution of complexes in HEK293 cells, confocal microscopy. The format is cell-based, human. Particulars: for cellular distribution of complexes: 333 nM. Here is the method:
Soluble streptavidin-cyanin 3 and streptavidin-cyanin 5 (Strept-Cy^3 and Strept-Cy^5, AMERSHAM) were mixed with 4 molar equivalents of biotinylated maurocalcine (1 mM) or biotinylated maurocalcine-derived peptide, in phosphate buffer (PBS, in mM: 136 NaCl, 1.47 Na2HPO4, 2.6 KCl, 1 CaCl2, 0.5 MgCl2, pH 7.2), for 2 hours at 37° C. and in the dark.
The human embryonic kidney cells (HEK 293 line, ATCC) are divided before confluence, by treatment with trypsin (1%), and are maintained in DMEM medium (INVITROGEN) containing 10% of inactivated fetal calf serum (INVITROGEN) and 1% of penicillin/streptomycin (INVITROGEN), in a CO2 incubator (5%). The culture medium is changed every 2 days.
The cells were incubated with maurocalcine and the derived peptides, biotinylated and complexed with streptavidin-cyanin 3 or with streptavidin-cyanin 5, […], in the dark and at ambient temperature, for 30 minutes to 1 hour. After 3 washes in PBS, the cells are fixed at ambient temperature, in a paraformaldehyde solution (4%), for 10 min, in the dark, washed in PBS and incubated for one hour with FITC-conjugated concanavalin (MOLECULAR PROBES, 5 μg/ml) in order to label the plasma membrane, and TO-PRO-3 iodide (MOLECULAR PROBES, 1 μM) in order to label the nucleus. In order to label the cytoskeleton, the cells were fixed and permeabilized with ice-cold methanol, for 10 min, washed twice in PBS and incubated with a mouse anti-alpha-tubulin antibody (1:1000, SIGMA), for 2 hours. After two washes in PBS, the cells were incubated for one hour with an anti-mouse IgG secondary antibody conjugated to Alexa 488 (1:1000, MOLECULAR PROBES). The cultures were then mounted in Vectashield mounting medium (VECTOR LABORATORIES). Preparations were observed by laser scanning confocal microscopy, using a Leica TCS-SP2 control system. The Alexa-488 and Cy3 or propidium iodide (PI) fluorescences were excited sequentially and then recorded. The Cy3 fluorescence was excited using a 543 nm helium-neon laser beam and the fluorescence emission was recorded between 554 nm and 625 nm. The images were introduced into Adobe Photoshop 7.0.

T1 sequence (P11716 whole entry): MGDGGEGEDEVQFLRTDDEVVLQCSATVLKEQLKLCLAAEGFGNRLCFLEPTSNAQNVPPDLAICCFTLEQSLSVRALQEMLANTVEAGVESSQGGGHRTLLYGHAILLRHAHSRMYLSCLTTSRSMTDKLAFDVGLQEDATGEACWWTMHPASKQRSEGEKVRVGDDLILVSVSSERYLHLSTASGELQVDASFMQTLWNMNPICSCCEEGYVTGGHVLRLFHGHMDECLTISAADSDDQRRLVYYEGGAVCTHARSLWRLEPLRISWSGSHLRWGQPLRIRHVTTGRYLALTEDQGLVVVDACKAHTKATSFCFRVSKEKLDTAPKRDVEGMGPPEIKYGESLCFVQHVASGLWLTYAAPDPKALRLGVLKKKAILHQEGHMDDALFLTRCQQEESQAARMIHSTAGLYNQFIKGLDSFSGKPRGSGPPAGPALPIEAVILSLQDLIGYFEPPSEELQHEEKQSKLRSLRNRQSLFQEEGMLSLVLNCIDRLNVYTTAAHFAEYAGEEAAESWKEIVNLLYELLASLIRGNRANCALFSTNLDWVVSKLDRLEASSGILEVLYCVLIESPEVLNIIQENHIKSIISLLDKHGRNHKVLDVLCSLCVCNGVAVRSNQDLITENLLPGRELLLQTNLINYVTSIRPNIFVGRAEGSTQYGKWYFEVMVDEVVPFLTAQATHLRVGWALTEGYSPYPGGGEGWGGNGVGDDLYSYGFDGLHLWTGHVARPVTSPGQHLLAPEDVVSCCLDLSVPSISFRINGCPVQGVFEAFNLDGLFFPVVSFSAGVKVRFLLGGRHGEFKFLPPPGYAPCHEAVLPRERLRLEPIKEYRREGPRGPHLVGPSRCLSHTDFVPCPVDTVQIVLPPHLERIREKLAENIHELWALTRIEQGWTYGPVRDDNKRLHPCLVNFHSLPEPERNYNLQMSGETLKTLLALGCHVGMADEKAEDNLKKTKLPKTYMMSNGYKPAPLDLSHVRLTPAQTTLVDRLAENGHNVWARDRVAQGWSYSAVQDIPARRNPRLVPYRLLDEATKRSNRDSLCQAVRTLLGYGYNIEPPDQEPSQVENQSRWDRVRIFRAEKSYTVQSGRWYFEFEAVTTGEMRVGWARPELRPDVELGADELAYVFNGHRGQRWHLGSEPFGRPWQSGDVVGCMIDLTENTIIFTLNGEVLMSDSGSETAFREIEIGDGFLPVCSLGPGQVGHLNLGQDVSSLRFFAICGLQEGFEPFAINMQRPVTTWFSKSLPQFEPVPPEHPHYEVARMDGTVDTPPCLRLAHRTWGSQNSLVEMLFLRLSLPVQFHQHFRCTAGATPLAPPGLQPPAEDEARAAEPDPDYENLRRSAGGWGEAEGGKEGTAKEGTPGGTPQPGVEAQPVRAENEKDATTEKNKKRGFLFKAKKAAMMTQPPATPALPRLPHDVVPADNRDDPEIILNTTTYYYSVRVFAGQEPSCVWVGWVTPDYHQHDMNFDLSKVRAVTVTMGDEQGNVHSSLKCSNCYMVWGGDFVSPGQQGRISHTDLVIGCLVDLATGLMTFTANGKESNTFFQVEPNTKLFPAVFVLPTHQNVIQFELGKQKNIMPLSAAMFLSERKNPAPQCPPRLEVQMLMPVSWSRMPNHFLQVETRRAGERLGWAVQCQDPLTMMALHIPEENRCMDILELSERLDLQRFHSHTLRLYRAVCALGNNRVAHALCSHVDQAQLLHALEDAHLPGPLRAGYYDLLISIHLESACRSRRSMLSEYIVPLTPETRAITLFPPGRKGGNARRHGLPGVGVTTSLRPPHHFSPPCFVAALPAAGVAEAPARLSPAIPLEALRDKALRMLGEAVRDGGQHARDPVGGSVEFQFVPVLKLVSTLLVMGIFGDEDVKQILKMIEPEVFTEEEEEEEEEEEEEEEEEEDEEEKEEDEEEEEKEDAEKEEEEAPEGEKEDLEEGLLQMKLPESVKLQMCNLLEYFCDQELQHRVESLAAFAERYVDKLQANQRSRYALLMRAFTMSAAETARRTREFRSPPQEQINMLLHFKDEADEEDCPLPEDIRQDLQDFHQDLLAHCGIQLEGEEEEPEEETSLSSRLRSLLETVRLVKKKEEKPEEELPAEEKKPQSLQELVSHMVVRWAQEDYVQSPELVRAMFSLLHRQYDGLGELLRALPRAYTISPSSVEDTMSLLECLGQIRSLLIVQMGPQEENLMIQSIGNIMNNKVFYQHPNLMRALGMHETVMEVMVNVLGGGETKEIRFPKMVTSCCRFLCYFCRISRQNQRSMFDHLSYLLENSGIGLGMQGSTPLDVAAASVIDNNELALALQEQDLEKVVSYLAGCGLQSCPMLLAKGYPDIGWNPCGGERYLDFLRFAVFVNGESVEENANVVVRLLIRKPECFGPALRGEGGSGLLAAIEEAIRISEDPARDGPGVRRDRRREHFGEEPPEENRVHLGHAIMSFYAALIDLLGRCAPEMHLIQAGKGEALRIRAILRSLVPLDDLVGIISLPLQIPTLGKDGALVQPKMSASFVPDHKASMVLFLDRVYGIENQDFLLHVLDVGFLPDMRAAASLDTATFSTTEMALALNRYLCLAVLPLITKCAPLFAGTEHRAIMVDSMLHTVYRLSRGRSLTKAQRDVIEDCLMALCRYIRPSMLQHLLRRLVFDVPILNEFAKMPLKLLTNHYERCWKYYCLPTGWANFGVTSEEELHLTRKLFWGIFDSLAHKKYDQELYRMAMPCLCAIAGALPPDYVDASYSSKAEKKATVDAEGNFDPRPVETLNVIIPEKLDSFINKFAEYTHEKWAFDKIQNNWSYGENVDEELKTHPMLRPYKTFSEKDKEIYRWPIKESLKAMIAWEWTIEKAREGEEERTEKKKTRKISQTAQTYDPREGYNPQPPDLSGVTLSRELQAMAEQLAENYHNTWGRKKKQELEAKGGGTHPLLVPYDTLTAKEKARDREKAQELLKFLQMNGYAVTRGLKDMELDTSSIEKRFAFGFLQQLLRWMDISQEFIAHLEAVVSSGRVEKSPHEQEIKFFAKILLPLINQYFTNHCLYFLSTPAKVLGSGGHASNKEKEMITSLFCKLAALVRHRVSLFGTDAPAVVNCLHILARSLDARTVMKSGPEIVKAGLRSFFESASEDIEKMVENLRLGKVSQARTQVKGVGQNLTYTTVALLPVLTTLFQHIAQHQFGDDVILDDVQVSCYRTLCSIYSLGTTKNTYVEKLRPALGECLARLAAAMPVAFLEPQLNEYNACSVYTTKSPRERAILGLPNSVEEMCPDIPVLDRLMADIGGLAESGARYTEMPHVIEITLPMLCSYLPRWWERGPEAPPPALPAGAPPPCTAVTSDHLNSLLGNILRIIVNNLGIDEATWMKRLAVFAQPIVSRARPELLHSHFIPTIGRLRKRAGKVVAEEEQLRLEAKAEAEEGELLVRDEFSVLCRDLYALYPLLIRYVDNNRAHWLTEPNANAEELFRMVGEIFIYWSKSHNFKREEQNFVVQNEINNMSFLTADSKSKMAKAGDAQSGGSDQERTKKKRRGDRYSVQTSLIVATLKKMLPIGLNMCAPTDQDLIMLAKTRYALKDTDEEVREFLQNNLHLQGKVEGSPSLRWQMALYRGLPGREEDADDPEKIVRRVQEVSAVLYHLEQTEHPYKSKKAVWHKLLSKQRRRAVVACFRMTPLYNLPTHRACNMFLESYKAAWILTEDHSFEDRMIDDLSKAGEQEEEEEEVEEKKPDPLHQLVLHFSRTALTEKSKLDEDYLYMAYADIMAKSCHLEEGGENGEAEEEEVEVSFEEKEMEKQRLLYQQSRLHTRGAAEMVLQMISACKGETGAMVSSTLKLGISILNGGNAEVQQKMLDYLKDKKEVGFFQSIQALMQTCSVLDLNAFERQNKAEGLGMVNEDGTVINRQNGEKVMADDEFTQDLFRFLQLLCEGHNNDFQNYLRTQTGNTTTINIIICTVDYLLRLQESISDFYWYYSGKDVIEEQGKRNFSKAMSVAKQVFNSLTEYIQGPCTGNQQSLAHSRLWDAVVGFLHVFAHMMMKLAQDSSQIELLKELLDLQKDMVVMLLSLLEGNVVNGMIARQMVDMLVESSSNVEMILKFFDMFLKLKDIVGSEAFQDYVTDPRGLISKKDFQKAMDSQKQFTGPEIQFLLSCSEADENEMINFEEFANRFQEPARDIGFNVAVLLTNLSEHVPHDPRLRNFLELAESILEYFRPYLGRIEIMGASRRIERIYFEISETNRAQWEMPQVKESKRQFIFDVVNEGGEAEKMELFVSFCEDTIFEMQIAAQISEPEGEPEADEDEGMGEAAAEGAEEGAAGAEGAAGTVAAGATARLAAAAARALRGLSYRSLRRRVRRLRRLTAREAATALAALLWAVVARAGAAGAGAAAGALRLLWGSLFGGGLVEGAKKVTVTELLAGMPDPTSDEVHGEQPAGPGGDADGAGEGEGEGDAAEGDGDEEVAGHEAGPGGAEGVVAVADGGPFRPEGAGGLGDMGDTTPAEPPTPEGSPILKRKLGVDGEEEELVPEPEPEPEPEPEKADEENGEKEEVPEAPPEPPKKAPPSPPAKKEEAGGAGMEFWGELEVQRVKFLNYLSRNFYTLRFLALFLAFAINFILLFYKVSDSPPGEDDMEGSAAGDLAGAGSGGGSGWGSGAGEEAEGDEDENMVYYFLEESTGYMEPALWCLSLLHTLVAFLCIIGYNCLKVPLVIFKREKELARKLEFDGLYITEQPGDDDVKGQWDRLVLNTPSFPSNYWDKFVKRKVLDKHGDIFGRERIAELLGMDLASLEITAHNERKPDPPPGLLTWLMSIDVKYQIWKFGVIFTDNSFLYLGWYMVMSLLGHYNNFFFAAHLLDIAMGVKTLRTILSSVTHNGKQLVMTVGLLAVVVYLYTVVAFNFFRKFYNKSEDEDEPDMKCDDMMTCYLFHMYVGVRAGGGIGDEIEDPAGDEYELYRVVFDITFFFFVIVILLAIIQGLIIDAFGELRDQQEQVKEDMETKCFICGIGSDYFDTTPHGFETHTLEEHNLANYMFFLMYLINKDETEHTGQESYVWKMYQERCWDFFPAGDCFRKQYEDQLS

For the substance “MCab/Strept-Cy3: biotinylated maurocalcine, complexed with cyanin-3-labeled streptavidin”, the “time of fluorescence peak in the plasma membrane (ROI-1)” value in test [1] (100 nM) stood at 10 min. Besides, in test [1] (100 nM in extracellular medium), the “time at which labeling appears after addition” value was determined as 3 min. Also, in test [2], the “efficiency of Ca2+ release in comparison with maurocalcine alone” value is “slightly reduced efficiency”. Besides, the “induction of Ca2+ release from sarcoplasmic reticulum vesicles” value in test [2] is given as “induce Ca^2+ release”. Moreover, in test [3], the “stimulation of [3H]-ryanodine binding to heavy sarcoplasmic reticulum vesicles” value is “conserve the ability to stimulate [^3H]-ryanodine binding”. In addition, the “entry into cells at decreased temperature” value in test [4] (100 nM, 1 h, 4° C.) is listed as “still penetrate into the cells”. Besides, the “effect of amiloride on entry of the complex” value in test [4] (100 nM, 1 h, amiloride 3 mM) was “no effect on the entry of the complex into the cells”. The “effect of nystatin on entry of the complex” value in test [4] (100 nM, 1 h, nystatin 50 μM) was “no effect on the entry of the complex into the cells”. In addition, the “cellular distribution of complexes” value in test [4] (2 hours of incubation) was “mainly present in the cytoplasm”; in test [4] (between 4 hours and 24 hours of incubation) it was “mainly perinuclear and colocalizes with the nucleus”.

The values are drawn from patent US8207293B2, “Peptides derived from maurocalcine used as vectors for intracellular addressing of molecules of interest” (Commissariat a l'Energie Atomique, priority 2004, dated 2012).
